Each structure is given as a SMILES string. Bounds are passed on as bounds.

Broadly, the IC50 is the concentration that gives 50% inhibition.

In this experiment the target is MEK1 (Homo sapiens, UniProt Q02750, DEL30-49/S218E/S222D). Description: MEK1 inhibition, fluorescence polarization assay with IMAP beads (ERK1 / FI-Erktide coupled). (In fluorescence polarisation assays a small probe gives low polarisation when free and higher when bound to something large.)
Sequence of MEK1 (Q02750 with tags, fused parts or gaps DEL30-49/S218E/S222D): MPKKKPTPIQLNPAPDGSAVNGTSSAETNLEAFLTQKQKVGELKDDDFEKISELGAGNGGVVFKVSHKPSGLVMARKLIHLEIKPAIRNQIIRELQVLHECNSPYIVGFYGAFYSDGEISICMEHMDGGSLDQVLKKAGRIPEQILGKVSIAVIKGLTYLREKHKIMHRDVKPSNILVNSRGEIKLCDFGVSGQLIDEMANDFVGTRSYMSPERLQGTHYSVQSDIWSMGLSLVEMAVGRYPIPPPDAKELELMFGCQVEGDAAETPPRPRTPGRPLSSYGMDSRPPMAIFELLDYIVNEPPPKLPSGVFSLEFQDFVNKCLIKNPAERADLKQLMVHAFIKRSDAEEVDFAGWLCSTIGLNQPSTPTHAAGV
As for `Cn1c(=O)c(F)c(Nc2ccc(I)cc2F)c2c(=O)n(C(CO)CO)cnc21` [Example 25, 3-(1,3-Dihydroxypropan-2-yl)-6-fluoro-5-(2-fluoro-4-iodophenylamino)-8-methylpyrido[2,3-d]pyrimidine-4,7(3H,8H)-dione], the IC50 is ≤ 5 nM.

`Cc1c(Nc2ccc(I)cc2F)c2c(=O)n(C(CO)CO)cnc2n(C)c1=O` [Example 43, 3-(1,3-Dihydroxypropan-2-yl)-5-(2-fluoro-4-iodophenylamino)-6,8-dimethylpyrido[2,3-d]pyrimidine-4,7(3H,8H)-dione] registered an IC50 of 5 to 15 nM.

Regarding `Cn1c(=O)c(Cl)c(Nc2ccc(I)cc2F)c2c(=O)n(C[C@H](O)CO)cnc21` [Example 7, (S)-6-Chloro-3-(2,3-dihydroxypropyl)-5-(2-fluoro-4-iodophenylamino)-8-methylpyrido[2,3-d]pyrimidine-4,7(3H,8H)-dione], the IC50 is ≤ 5 nM.

Regarding `Cn1c(=O)c(Cl)c(Nc2ccc(I)cc2F)c2c(=O)n(CCO)cnc21` [Example 30, 6-Chloro-5-(2-fluoro-4-iodophenylamino)-3-(2-hydroxyethyl)-8-methylpyrido[2,3-d]pyrimidine-4,7(3H,8H)-dione], the IC50 is ≤ 5 nM. The same measure for `COC(=O)Cn1cnc2c(c(Nc3ccc(I)cc3F)cc(=O)n2C)c1=O` [Example 3, Methyl 2-(5-(2-fluoro-4-iodophenylamino)-8-methyl-4,7-dioxo-7,8-dihydropyrido[2,3-d]pyrimidin-3(4H)-yl)acetate]: ≥ 16 nM. In the case of `Cn1c(=O)c(Cl)c(Nc2ccc(Br)cc2F)c2c(=O)n(CCCO)cnc21` [Example 34, 5-(4-Bromo-2-fluorophenylamino)-6-chloro-3-(3-hydroxypropyl)-8-methylpyrido[2,3-d]pyrimidine-4,7(3H,8H)-dione] it was 5 to 15 nM. With `Cn1c(=O)c(Cl)c(Nc2ccc(Br)cc2Cl)c2c(=O)n(CCCO)cnc21` [Example 36, 5-(4-Bromo-2-chlorophenylamino)-6-chloro-3-(3-hydroxypropyl)-8-methylpyrido[2,3-d]pyrimidine-4,7(3H,8H)-dione], the IC50 was ≥ 16 nM. The same measure for `Cn1c(=O)c(F)c(Nc2ccc(NS(C)(=O)=O)cc2F)c2c(=O)n(C[C@@H](O)CO)cnc21` [Example 23, (R)—N-(4-(3-(2,3-Dihydroxypropyl)-6-fluoro-8-methyl-4,7-dioxo-3,4,7,8-tetrahydropyrido[2,3-d]pyrimidin-5-ylamino)-3-fluorophenyl)methanesulfonamide]: ≥ 16 nM; for `C#Cc1ccc(Nc2c(F)c(=O)n(C)c3ncn(C[C@@H](O)CO)c(=O)c23)c(F)c1` [Example 22, (R)-3-(2,3-dihydroxypropyl)-5-(4-ethynyl-2-fluorophenylamino)-6-fluoro-8-methylpyrido[2,3-d]pyrimidine-4,7(3H,8H)-dione]: ≤ 5 nM. The same measure for `Cc1c(Nc2ccccc2F)c2c(=O)n(CCO)cnc2n(C)c1=O` [Example 15, 5-(2-Fluorophenylamino)-3-(2-hydroxyethyl)-6,8-dimethylpyrido[2,3-d]pyrimidine-4,7(3H,8H)-dione]: ≥ 16 nM. The same measure for `Cc1c(Nc2ccc(Br)cc2F)c2c(=O)n(C[C@@H](O)CO)cnc2n(C)c1=O` [Example 10, (R)-5-(4-Bromo-2-fluorophenylamino)-3-(2,3-dihydroxypropyl)-6,8-dimethylpyrido[2,3-d]pyrimidine-4,7(3H,8H)-dione]: ≥ 16 nM; for `Cn1c(=O)c(Cl)c(Nc2ccc(Br)cc2F)c2c(=O)n(C[C@@H](O)CO)cnc21` [Example 29, (R)-5-(4-Bromo-2-fluorophenylamino)-6-chloro-3-(2,3-dihydroxypropyl)-8-methylpyrido[2,3-d]pyrimidine-4,7(3H,8H)-dione]: 5 to 15 nM. On to `Cn1c(=O)c(Cl)c(Nc2ccc(I)cc2F)c2c(=O)n(CCCO)cnc21` [Example 32, 6-Chloro-5-(2-fluoro-4-iodophenylamino)-3-(3-hydroxypropyl)-8-methylpyrido[2,3-d]pyrimidine-4,7(3H,8H)-dione], for which the IC50 is ≤ 5 nM.

As for `Cn1c(=O)cc(Nc2ccc(Br)cc2F)c2c(=O)n(CCCO)cnc21` [Example 33, 5-(4-Bromo-2-fluorophenylamino)-3-(3-hydroxypropyl)-8-methylpyrido[2,3-d]pyrimidine-4,7(3H,8H)-dione], the IC50 is ≥ 16 nM. The molecule `C#Cc1ccc(Nc2c(F)c(=O)n(C)c3ncn(C[C@H](O)CO)c(=O)c23)c(F)c1` [Example 21, (S)-3-(2,3-Dihydroxypropyl)-5-(4-ethynyl-2-fluorophenylamino)-6-fluoro-8-methylpyrido[2,3-d]pyrimidine-4,7(3H,8H)-dione] showed an IC50 of 5 to 15 nM. The same measure for `Cn1c(=O)cc(Nc2ccc(I)cc2F)c2c(=O)n(Cc3ccccc3)cnc21` [Example 42, 3-Benzyl-5-(2-fluoro-4-iodophenylamino)-8-methylpyrido[2,3-d]pyrimidine-4,7(3H,8H)-dione]: ≥ 16 nM; for `CN(C)CCn1cnc2c(c(Nc3ccc(I)cc3F)cc(=O)n2C)c1=O` [Example 37, 3-(2-(Dimethylamino)ethyl)-5-(2-fluoro-4-iodophenylamino)-8-methylpyrido[2,3-d]pyrimidine-4,7(3H,8H)-dione]: ≥ 16 nM; for `CC(O)Cn1cnc2c(c(Nc3ccc(I)cc3F)c(Cl)c(=O)n2C)c1=O` (centres unmarked) [Example 40, 6-Chloro-5-(2-fluoro-4-iodophenylamino)-3-(2-hydroxypropyl)-8-methylpyrido[2,3-d]pyrimidine-4,7(3H,8H)-dione]: 5 to 15 nM. In the case of `Cn1c(=O)c(F)c(Nc2ccc(I)cc2F)c2c(=O)n(OC[C@H](O)CO)cnc21` [Example 28, (R)-3-(2,3-Dihydroxypropoxy)-6-fluoro-5-(2-fluoro-4-iodophenylamino)-8-methylpyrido[2,3-d]pyrimidine-4,7(3H,8H)-dione] it was ≤ 5 nM.

In the case of `CC(O)Cn1cnc2c(c(Nc3ccc(I)cc3F)cc(=O)n2C)c1=O` (centres unmarked) [Example 38, 5-(2-Fluoro-4-iodophenylamino)-3-(2-hydroxypropyl)-8-methylpyrido[2,3-d]pyrimidine-4,7(3H,8H)-dione], the IC50 was ≥ 16 nM. In the case of `Cn1c(=O)cc(Nc2ccc(I)cc2F)c2c(=O)n(CCCO)cnc21` [Example 31, 5-(2-Fluoro-4-iodophenylamino)-3-(3-hydroxypropyl)-8-methylpyrido[2,3-d]pyrimidine-4,7(3H,8H)-dione] it was ≤ 5 nM; in that of `C#Cc1ccc(Nc2c(C)c(=O)n(C)c3ncn(C[C@@H](O)CO)c(=O)c23)c(F)c1` [Example 16, (R)-3-(2,3-Dihydroxypropyl)-5-(4-ethynyl-2-fluorophenylamino)-6,8-dimethylpyrido[2,3-d]pyrimidine-4,7(3H,8H)-dione], 5 to 15 nM. The same measure for `Cn1c(=O)c(F)c(Nc2ccc(I)cc2F)c2c(=O)n(C[C@@H](O)CO)cnc21` [Example 18, (R)-3-(2,3-Dihydroxypropyl)-6-fluoro-5-(2-fluoro-4-iodophenylamino)-8-methylpyrido[2,3-d]pyrimidine-4,7(3H,8H)-dione]: ≤ 5 nM; for `Cc1c(Nc2ccc(Br)cc2F)c2c(=O)n(C[C@H](O)CO)cnc2n(C)c1=O` [Example 9, (S)-5-(4-Bromo-2-fluorophenylamino)-3-(2,3-dihydroxypropyl)-6,8-dimethylpyrido[2,3-d]pyrimidine-4,7(3H,8H)-dione]: ≥ 16 nM. In the case of `Cc1c(Nc2ccc(I)cc2F)c2c(=O)n(CCO)cnc2n(C)c1=O` [Example 14, 5-(2-Fluoro-4-iodophenylamino)-3-(2-hydroxyethyl)-6,8-dimethylpyrido[2,3-d]pyrimidine-4,7(3H,8H)-dione] it was ≤ 5 nM; in that of `Cc1c(Nc2ccc(Br)cc2F)c2c(=O)n(CCO)cnc2n(C)c1=O` [Example 11, 5-(4-Bromo-2-fluorophenylamino)-3-(2-hydroxyethyl)-6,8-dimethylpyrido[2,3-d]pyrimidine-4,7(3H,8H)-dione], ≥ 16 nM. `C#Cc1ccc(Nc2c(C)c(=O)n(C)c3ncn(C[C@H](O)CO)c(=O)c23)c(F)c1` [Example 44, (S)-3-(2,3-Dihydroxypropyl)-5-(4-ethynyl-2-fluorophenylamino)-6,8-dimethylpyrido[2,3-d]pyrimidine-4,7(3H,8H)-dione] yielded an IC50 of 5 to 15 nM. In the case of `Cn1c(=O)cc(Nc2ccc(Br)cc2Cl)c2c(=O)n(CCCO)cnc21` [Example 35, 5-(4-Bromo-2-chlorophenylamino)-3-(3-hydroxypropyl)-8-methylpyrido[2,3-d]pyrimidine-4,7(3H,8H)-dione] it was ≥ 16 nM; in that of `Cn1c(=O)c(F)c(Nc2ccc(I)cc2F)c2c(=O)n(C[C@H](O)CO)cnc21` [Example 19, (S)-3-(2,3-Dihydroxypropyl)-6-fluoro-5-(2-fluoro-4-iodophenylamino)-8-methylpyrido[2,3-d]pyrimidine-4,7(3H,8H)-dione], ≤ 5 nM.

Source of the values: patent publication US8470837B2, “MAPK/ERK kinase inhibitors” (Takeda Pharmaceutical Company Limted, priority 2006, dated 2013).
